# US20060074073A1, “Therapeutic combinations comprising poly (ADP-ribose) polymerases inhibitor” (AGOURON PHARMACEUTICALS, INC., priority 2004, published 2006)
# “And” between values parts separate entries of the source, which are not always exact repeats. Equal values may be shown once.
# Assays:
# [1] = IV pharmacokinetics in rats; settings: Wistar, rat, in vivo, 5 mg/kg
# Description: (§1) Each of the dose treatment groups was split into 2 cohort groups of 4 mice. The reason for cohort blood sampling is due to the blood volume limitations of the mouse species. Blood was drawn from each cohort every other pharmacokinetic sampling time. […] Three mice per dose group were euthanized at each of the collection time points. […] Blood from each rat was collected for each time point.
# LoVo xenografts = assay: Tumor growth delay with X-irradiation, LoVo xenografts; assay type: in vivo
# Method: The experimental endpoint was defined to be the time required for relative tumor volume to increase to four times the volume measured at the start of treatment (RTV4). Growth delays were calculated from the difference in time taken to achieve RTV4 (days) between IR/Formula 1 treated tumors and untreated controls.
# Human protein binding = assay type: in vitro ADME
# Method: This value was determined from the target effect (IC89) for inhibition of cellular NAD^+ depletion and poly-ADP-ribose polymer formation and adjusted for protein binding. […] II. Pharmaceutical Combinations of the Present Invention and Their Use
# in vivo = settings: CD-1, mouse, iv, 5 mg/kg
# Description: as §1
# PARP = PARP activity in peripheral blood lymphocytes of patients (monoclonal antibody assay); assay type: in vivo, human
# Method: Whole blood was collected into EDTA vacutainers and human PBLs were obtained by lymphopreparation according to the manufacturers instructions. Tumour biopsies were collected from the operating theatre in a sterile container and placed immediately on ice. Within 30 minutes tumour samples were snap frozen in liquid nitrogen and stored at −80° C. until homogenised for analysis. The specimen was defrosted on ice and the wet weight documented. For weights over 100 mg the tissue was homogenised using a Pro 2000 instrument (Pro Scientific Inc, Monroe, Conn., USA) in 3 volumes (i.e. 1 mg plus 3 μl isotonic buffer −7 mM Hepes, 26 mM KCl, 0.1 mM dextran, 0.4 mM EGTA, 0.5 mM MgCl2, 45 mM sucrose, pH 7.8), giving a homogenate with an overall dilution of 1 in 4. Where smaller samples had been obtained they were homogenised in 99 or 999 volumes, giving final dilutions of 1 in 100 and 1 in 1000, respectively. The homogenate was kept on ice throughout the process, and homogenisation was performed in 10 second bursts to prevent undue warming of the sample. Unless assayed on the day of homogenisation, samples were re-frozen to −80° C. and stored at this temperature until analysed. Prior to assay the samples were further diluted with isotonic buffer where necessary to give a final dilution of 1 in 1000.
# Cultured cells or rapidly defrosted lymphocyte preparations were washed twice in ice cold PBS. The cell pellets were resuspended in 0.15 mg/ml digitonin to a density of approximately 1-2×10^6 cells per ml for 5 minutes to permeabilise the cells, following which 9 volumes of ice-cold buffer (7 mM HEPES, 26 mM KCl, 0.1 mM dextran, 0.4 mM EGTA, 0.5 mM MgCl2, 45 mM sucrose, pH 7.8) were added and the sample placed on ice. The permeabilised (i.e. trypan blue stained) cell density was counted and the cell suspension was diluted if necessary with the above buffer to achieve a cell density that allowed 20,000 permeabilised cells to be added to each reaction tube. In the assay maximally stimulated PARP activity is measured by exposure to a blunt ended oligonucleotide in the presence of NAD^+ substrate, at 26° C. in an oscillating water bath. Five μl of 7 mM NAD^+ and 5 μl 200 μg/ml pallindromic oligonucleotide ([…]) were mixed with permeabilised cells and reaction buffer (100 mM Tris HCl, 120 mM MgCl2, pH 7.8) to a final volume of 100 μl. The reaction was stopped after 6 minutes by the addition of excess PARP inhibitor (400 μl of 12.5 μM Compound I) and the cells blotted onto a nitrocellulose membrane (Hybond N, Amersham) using a 24-well manifold. A purified PAR standard curve was loaded onto each membrane (0-25 pmol monomer equivalent) to allow quantification. Overnight incubation with the primary antibody (1 in 500 in PBS-MT (PBS plus 0.05% Tween 20 Plus 5% Milk powder) at 4° C. was followed by 2 washes in PBS-T (PBS plus 0.05% Tween 20) and then incubation in secondary antibody (1 in 1000 in PBS-MT) for 1 hour at room temperature. The incubated membrane was washed frequently with PBS over the course of one hour then exposed for one minute to ECL reaction solution as supplied by the manufacturer. Chemiluminesence detected during a 5 minute exposure was measured using a Fuji LAS3000 UV Illuminator (Raytek, Sheffield, UK) and digitised using the imaging software (Fuji LAS Image version 1.1, Raytek). The acquired image was analysed using Aida Image Analyser (version 3.28.001), and results expressed in LAU/mm^2. Three background areas on the exposed blot were measured and the mean of the background signal from the membrane subtracted from all results. The PAR polymer standard curve was analysed using an un-weighted one site binding non-linear regression model and unknowns read off the standard curve so generated. Results were then expressed relative to the number of cells loaded. Triplicate QC samples of 5000 L1210 cells were run with each assay, all samples from one patient being analysed on the same blot. […]
compound,measurement,setting,value
"CNCc1ccc(-c2[nH]c3cc(F)cc4c3c2CCNC4=O)cc1 [compound of formula 1, 8-fluoro-2-{4-[(methylamino)methyl]phenyl}-1,3,4,5-tetrahydro-6H-azepino[5,4,3-cd]indol-6-one]",AUC(0-inf),[1],990 ng·h/mL
same,Vd,[1],10 L/kg
same,clearance,[1],85 mL/min/kg
same,half-life,[1],2.8 h
same,Enhancement (%),"LoVo xenografts; IR 2 Gy + 0.15 mg/kg i.p. 30 minutes before, daily × 5, 0.15 mg/kg",36% and 36^e %
same,Enhancement (%),"LoVo xenografts; IR 2 Gy + 15 mg/kg i.p. 30 minutes before, daily × 5, 15 mg/kg",36% and 36^f %
same,fraction unbound,"Human protein binding; human, plasma, concentrations between 0.05 to 25 nM",0.274
same,plasma concentration from 5 nM target effect corrected for human protein binding,Human protein binding; target effect IC89 in A549 cells,5.9 ng/mL
same,AUC(0-inf),in vivo,620 ng·h/mL
same,Vd,in vivo,10 L/kg
same,clearance,in vivo,136 mL/min/kg
same,half-life,in vivo,2.3 h
"CNCc1ccc(-c2[nH]c3cc(F)cc4c3c2CCNC4=O)cc1.O=P(O)(O)O [Compound I, phosphate salt of 8-fluoro-2-{4-[(methylamino)methyl]phenyl}-1,3,4,5-tetrahydro-6H-azepino[5,4,3-cd]indol-6-one]",decrease in median PARP activity,"PARP; PBL, all patients regardless of dose, after completion of the 30-minute infusion on Day 1",≥ 50%
same,"% Pretreatment PARP Activity, Median (%)","PARP; PBL, cohort 1, Compound I 1 mg/m^2, 4-6 h, after test dose (usually Day −7)",57%
same,"% Pretreatment PARP Activity, Median (%)","PARP; PBL, cohort 1, Compound I 1 mg/m^2, 0.5 h, after test dose (usually Day −7)",18%
same,"% Pretreatment PARP Activity, Median (%)","PARP; PBL, cohort 1, Compound I 1 mg/m^2, 24 h, after test dose (usually Day −7)",77%
same,"% Pretreatment PARP Activity, Median (%)","PARP; PBL, cohort 2, Compound I 2 mg/m^2, 4-6 h, Day 1",27%
same,"% Pretreatment PARP Activity, Median (%)","PARP; PBL, cohort 2, Compound I 2 mg/m^2, 0.5 h, Day 1",10%
same,"% Pretreatment PARP Activity, Median (%)","PARP; PBL, cohort 2, Compound I 2 mg/m^2, 24 h, Day 1",36%
same,"% Pretreatment PARP Activity, Median (%)","PARP; PBL, cohort 3, Compound I 4 mg/m^2, 4-6 h, Day 1",28%
same,"% Pretreatment PARP Activity, Median (%)","PARP; PBL, cohort 3, Compound I 4 mg/m^2, 0.5 h, Day 1",42%
same,"% Pretreatment PARP Activity, Median (%)","PARP; PBL, cohort 3, Compound I 4 mg/m^2, 24 h, Day 1",108%
same,"% Pretreatment PARP Activity, Median (%)","PARP; PBL, cohort 4, Compound I 8 mg/m^2, 4-6 h, Day 1",16%
same,"% Pretreatment PARP Activity, Median (%)","PARP; PBL, cohort 4, Compound I 8 mg/m^2, 0.5 h, Day 1",1%
same,"% Pretreatment PARP Activity, Median (%)","PARP; PBL, cohort 4, Compound I 8 mg/m^2, 24 h, Day 1",9%
same,"% Pretreatment PARP Activity, Median (%)","PARP; PBL, cohort 9, Compound I 18 mg/m^2, 4-6 h, Day 1",7.5%
same,"% Pretreatment PARP Activity, Median (%)","PARP; PBL, cohort 9, Compound I 18 mg/m^2, 0.5 h, Day 1",6%
same,"% Pretreatment PARP Activity, Median (%)","PARP; PBL, cohort 9, Compound I 18 mg/m^2, 24 h, Day 1",14%
same,median reduction in PARP activity,"PARP; PBL, cohorts 4 and 5, 24 hours after Day 1 dose",> 50%
same,"% Pretreatment PARP Activity, Median (%)","PARP; PBL, cohorts 5-8, Compound I 12 mg/m^2, 4-6 h, Day 1",13%
same,"% Pretreatment PARP Activity, Median (%)","PARP; PBL, cohorts 5-8, Compound I 12 mg/m^2, 0.5 h, Day 1",14.5%
same,"% Pretreatment PARP Activity, Median (%)","PARP; PBL, cohorts 5-8, Compound I 12 mg/m^2, 24 h, Day 1",29%
same,PARP inhibitory dose (PID),"PARP; patients, PARP activity in peripheral blood lymphocytes <50% of baseline 24 hours after Day 1 dose, with plateau",12 mg/m^2
